One data set has as its system EOL-1 cells. Put plainly: cells. The settings on record: for IC50: read-out: Viability (IC50) EOL-1; for effect on viability of EOL-1 cells, presence of cytokines: 1 μM (U0126 10 μM), FIGS. 2, 4, 6, GM-CSF and IL-3 10 ng/mL each. On the procedure:
(§1) Given that mutant Flt3 activates cyclin D/CDK4 signaling, the effect of the CDK4 inhibitor arcyriaflavin on the viability of MV4-11 cells was tested. As a control in this experiment, an inhibitor for cyclin A/CDK2 and cyclin E/CDK2 (purvalanol) as well as an inhibitor for cyclin B/CDK1 (alsterpaullone) was included. […] The inhibitors were also tested against EOL-1 cells, which express the mutant fusion kinase FiplL1-PDGFROα and against K562 and BV173 cells (CML cell lines) and THP-1 and U937 cells (AML cell lines). The dilution range of the inhibitors was from 20 μM to 10 nM.
(§2) Viability of the cell lines was determined by an MTT assay, which is based on the reduction of the tetrazolium salt 3, [4,5-dimethylthiazol-2-yl]-2,5-diphenyltetrazolium bromide (MTT). Mitochondrial enzymes associated with metabolic activity reduce MTT to a formazan dye, which can be measured spectrometrically. Cells undergoing apoptosis show reduced metabolic activity resulting in reduced formation of the formazan dye.
(§3) The bone marrow environment is known to contain a multitude of cytokines. […] The cell lines were incubated with the appropriate inhibitor in the presence and absence of the cytokines GM-CSF and IL-3 (10 ng/mL each).
(§4) To test the role of MEK in the survival of MV4-11 and EOL-1 cells, a viability assay (48 hour incubation) was performed using U0126 (10 μM), an MEK specific inhibitor (see FIG. 5).

For a further data set, the system named is MV4-11 cells. Description: cells. The settings on record: for IC50: read-out: Viability (IC50) MV4-11. On the procedure:
as §1, §2, §3, §4

Another data set deals with THP-1 cells. Description: cells. The note with it: for effect on viability of THP-1 cells: 48 hours, arcyriaflavin 1 μM, U0126 10 μM, FIGS. 4-6, absence and presence of cytokines; for IC50: read-out: Viability (IC50) THP-1. On the procedure: as §1, §2, §3, §4
The next data set has as its system K562 cells. Put plainly: MTT viability assay, K562 cells. Type of data set: cell-based. On the procedure: as §1, §2
In general terms: Formazan colour is commonly taken as a measure of viable cells.

The subject of the next data set is BV173 cells. Description: MTT viability assay, BV173 cells. Format: cell-based. On the procedure: as §1, §2
For another data set, the system named is U937 cells. Put plainly: MTT viability assay, U937 cells. Type of data set: cell-based. On the procedure:
as §1, §2

Where [1] appears, read: 48 hours, arcyriaflavin 1 μM, U0126 10 μM, FIGS. 5, 6, absence and presence of cytokines.
Where [2] appears, read: exposed to inhibitor for 72 hours.
[3] abbreviates: exposed to inhibitor for 72 hours, MTT.

The text below walks through data of patent US20050171182A1, “Methods and compositions for use in the treatment of mutant receptor tyrosine kinase driven cellular proliferative diseases” (priority 2003, published 2005).

Where two headings read alike, the source gives them in different places.

A word on the viability: it is a read-out of living cells in per cent, often relative to untreated cells. As to `N#CC(=C(/N)Sc1ccccc1N)/C(C#N)=C(\N)Sc1ccccc1N` [U0126, 1,4-diamino-2,3-dicyano-1,4-bis[2-aminophenylthio]butadiene], the “effect on survival/viability of EOL-1 cells, overall” value in the data set on EOL-1 cells (setting [1]) is “slightly alters”. The viability at 10 µM in the data set on EOL-1 cells (Homo sapiens, EOL1, 48 h, read-out: Viability (%) EOL-1 cell line, Cytokines Absent) worked out at 80%; in the data set with MV4-11 cells (Homo sapiens, MV4-11, 48 h, read-out: Viability (%) MV4-11 cell line, Cytokines Absent) it was 103%; with THP-1 cells (Homo sapiens, THP-1, 48 h, read-out: Viability (%) THP-1 cell line, Cytokines Absent), 79%. Moreover, in the data set on EOL-1 cells (human, 48 h, 10 μM), the “Viability (%) EOL-1 cell line, GM-CSF/IL-3 (10 ng/mL each)” value was found to be 103%. Also, in the data set with MV4-11 cells (setting [1]), the “effect on survival/viability of MV4-11 cells, overall” value is reported as “slightly alters”. The “Viability (%) MV4-11 cell line, GM-CSF/IL-3 (10 ng/mL each)” value in the data set with MV4-11 cells (human, 48 h, 10 μM) came out at 90%. In the data set on THP-1 cells, the “effect on viability of THP-1 cells” value is given as “slightly alters”. The “Viability (%) THP-1 cell line, GM-CSF/IL-3 (10 ng/mL each)” value in the data set on THP-1 cells (human, 48 h, 10 μM) turned out to be 97%.

One may read the IC50 as the concentration that gives 50% inhibition. On to `O=C1Cc2c([nH]c3ccc([N+](=O)[O-])cc23)-c2ccccc2N1` [alsterpaullone], for which the half-inhibitory concentration (IC50) is over 10000 nM in the data set with K562 cells (Homo sapiens, K562, exposed to inhibitor for 72 hours); 1000 nM in the data set with BV173 cells (Homo sapiens, BV-173, exposed to inhibitor for 72 hours); 1000 nM in the data set with EOL-1 cells (Homo sapiens, EOL1, 72 h); 1000 nM with MV4-11 cells (Homo sapiens, MV4-11, 72 h); 1000 nM in the data set with THP-1 cells (Homo sapiens, THP-1, 72 h); 600 nM in the data set on U937 cells (Homo sapiens, U-937, exposed to inhibitor for 72 hours).

Regarding `O=C1NC(=O)c2c1c1c3ccccc3[nH]c1c1[nH]c3ccccc3c21` [arcyriaflavin, arcyriaflavin A], the IC50 with K562 cells (setting [2]) was over 10000 nM; in the data set on BV173 cells (setting [2]), over 10000 nM; in the data set with EOL-1 cells (setting [3]), 200 nM; in the data set on MV4-11 cells (setting [3]), 500 nM; with THP-1 cells (setting [3]), over 10000 nM; in the data set on U937 cells (setting [2]) it was over 10000 nM. Further, in the data set with EOL-1 cells, the “Viability (%) EOL-1 cell line, GM-CSF/IL-3 (10 ng/mL each)” value is recorded as 60%. Also, in the data set on EOL-1 cells (48 hours), the “effect on viability of EOL-1 cells, presence of cytokines” value is reported as “much reduced”. Besides, the “Viability (%) MV4-11 cell line, GM-CSF/IL-3 (10 ng/mL each)” value in the data set with MV4-11 cells came to 52%. Moreover, the “effect on viability of MV4-11 cells, presence of cytokines” value in the data set on MV4-11 cells (48 hours, 1 μM (U0126 10 μM), FIGS. 3, 4, 6, GM-CSF and IL-3 10 ng/mL each) is reported as “much reduced”. In addition, the “Viability (%) THP-1 cell line, GM-CSF/IL-3 (10 ng/mL each)” value in the data set on THP-1 cells was found to be 96%. In addition, the “effect on viability of THP-1 cells” value in the data set with THP-1 cells is listed as “not affected”.

Take `CS(=O)(=O)O.Cc1ccc(NC(=O)c2ccc(CN3CCN(C)CC3)cc2)cc1Nc1nccc(-c2cccnc2)n1` [imatinib]: in the data set on EOL-1 cells (48 hours), the “effect on viability of EOL-1 cells, presence of cytokines” value is reported as “much less affected”. Also, in the data set with EOL-1 cells (48 hours, 1 μM, FIGS. 2, 4, cytokines absent), the “effect on viability of EOL-1 cells, absence of cytokines” value was “strongly reduce”.

Take purvalanol: the IC50 is over 10000 nM in the data set on K562 cells (setting [2]); over 10000 nM in the data set with BV173 cells (setting [2]); over 10000 nM in the data set with EOL-1 cells (setting [3]); 3000 nM in the data set with MV4-11 cells (setting [3]); over 10000 nM with THP-1 cells (setting [3]); over 10000 nM with U937 cells (setting [2]).
